Measurements reported in publication PMC9977398, “Next-generation membrane-active glycopeptide antibiotics that also inhibit bacterial cell division” (Chemical Science, 2023).

How the values were obtained:
B. subtilis 168 = assay: Acute growth retardation / physiologically effective concentration; assay type: cell-based; conditions: exponentially growing B. subtilis
Source text: The mechanisms of action in Gram-positive bacteria were further examined in the model bacterium B. subtilis. The study of the mechanism of action of a drug requires live cells under antibiotic stress. A 30–50% growth inhibition upon treatment, triggers a stress response in the bacterial cell while allowing cell proliferation to progress at a level sufficient to study the effect of the compound. The lowest concentration at which this effect was observed, was termed the physiologically effective concentration (PEC). […] The acute effect of different antibiotic concentrations on exponentially growing bacterial cultures were tested to identify the PEC (Fig. 3B–D). […] The presence of cationic lipophilic moieties possibly result in higher accumulation in the membrane region leading to growth inhibition at lower concentrations. […]
(§1) Determination of Physiologically Effective Concentration7
Overnight cultures of B. subtilis 168 were grown in 50 mL flasks with 10 mL of media. Upon growing to mid-log phase (an OD500 between 0.5 and 1), bacteria was inoculated in 100mL BMM in a 500 ml flask. When the cultures reach an OD500 of 0.35, the bacteria is aliquoted into separate conicals (50 mL) with 5 ml and compounds are added. The O.D. of the solutions are recorded every 30 minutes. The concentration which retards the growth of bacteria was selected as the PEC. The experiments were performed two times independently and the images are representative of results from two independent experiments. The experiment was done together with the compound published in (J. Med. Chem. 64, 2021, 10185) and therefore the graph for vancomycin is the same. […]
Overnight bacterial cultures were inoculated in BMM and allowed to grow to an OD 500 of 0.35. 200 µL of the bacterial culture were incubated with compounds at 37 ̊C for 15 minutes. […]
BAC Light assay or pore formation assay
0.35. 500 µL of the bacteria was then incubated with the compounds at their respective PECSs for 10 mins in the same media at 37 ̊C. The compound was then centrifuged at 13200 rpm and […]

B. subtilis = assay: Cell wall biosynthesis inhibition assay (bubble assay); assay type: cell-based; conditions: treatment at PEC
Protocol: To further study the mechanisms contributing to the growth retardation, microscopic studies were carried out upon treatment of B. subtilis with compounds. Upon inhibition of cell wall biosynthesis, holes are formed in the peptidoglycan layer where new cell wall material is no longer incorporated. The cytoplasmic membrane extrudes out of these perforations, appearing as bubbles on the cell surface when treated with a 1 : 3 mixture of acetic acid and methanol.[30] […]
and the untreated control were carefully removed from the well, washed with 0.9 % saline, and placed on glass slides. The biofilms were then stained with 10 μL of SYTO9 (60μM) and imaged using a Zeiss 510 Meta confocal laser-scanning microscope. The orthogonal projections of the images were processed with LSM 5 Image examiner. The experiment was performed three times independently and the image provided is representative of these.
Determination of MIC against B. subtilis
Overnight cultures of B. subtilis 168 were grown in 50 mL flasks in 5 mL BMM media. The bacteria in the mid-log phase were then incubated with compounds for 18 h at 37 ̊C in BMM media. The MIC was determined as the lowest concentration at which no visible bacterial OD […]
as §1
Overnight cultures of B. subtilis 168 were grown in 50 mL flasks with 10 mL of media. Upon growing to mid-log phase (an OD500 between 0.5 and 1), bacteria was inoculated in 100mL BMM in a 500 ml flask. When the cultures reach an OD500 of 0.35, the bacteria is aliquoted into separate conicals (50 mL) with 5 ml and compounds are added. The O.D. of the solutions are recorded every 30 minutes. The concentration which retards the growth of bacteria was selected as the PEC. The experiments were performed two times independently and the images are representative of results from two independent experiments. The experiment was done together with the compound published in (J. Med. Chem. 64, 2021, 10185) and therefore the graph for vancomycin is the same.
Cell wall biosynthesis inhibition assay or Bubble assay […]

[1] = tested on: stationary phase cells of MRSA; assay: Antibacterial activity against stationary phase bacteria; assay type: cell-based, S. aureus; conditions: for time to complete eradication: stationary phase MRSA
Protocol: The stationary phase cells and persister cells are metabolically repressed and phenotypically different from the log-phase cells.[27] For activity, the commonly used drugs, vancomycin, and linezolid require actively ongoing cellular processes. They are therefore ineffective against non-dividing bacteria. […] The integrity of the bacterial membrane is imperative to survival irrespective of metabolic state. […] It completely eradicated cells in 24 h at 10 μM and within 6 h at 20 μM. […]
Antibacterial activity against stationary phase bacteria
MRSA ATCC 33591 was grown to mid-log phase at 37 °C. The bacterial suspension was diluted 1000-fold in nutrient media and allowed to reach stationary phase in 16 h. The bacterial suspension was diluted and spot-plated to determine the bacterial count. The 16 h growth culture was diluted to ~10^6 CFU/mL in PBS. 150 μL of this bacterial suspension was then incubated with 50 μL of test compounds in a 96 well-plate. The compound and bacteria were then incubated at 37 °C for 2h. The suspension was serially diluted 10 fold and spot-plated on […]. The viable bacteria were then counted after 48 h incubation at 37 °C. The results represented are the average of two independent experiments carried in duplicates. […]

[2] = tested on: exponential growth phase MRSA; assay: Time-kill kinetics, exponentially growing MRSA; assay type: cell-based, S. aureus; conditions: for time to complete eradication: exponentially growing MRSA; for minimum bactericidal concentration (MBC): log-phase MRSA
Protocol: To examine the antibacterial properties of the two leads, VanQbiph (4) and VanQAmC10 (8), the kinetics of bactericidal activity against exponentially growing, log-phase cells of MRSA was evaluated (Fig. 1B). The minimum bactericidal concentration (MBC) of VanQbiph (4) and VanQAmC10 (8) was at 2×MIC. […]
Time-kill kinetics assay 4
The bactericidal activity of the compounds was evaluated with the time kill kinetics assay.
MRSA ATCC 33591 cells were cultured in nutrient media at 37°C for 6 h. VanQAmC 10, VanQbiph, and vancomycin was added to the bacterial solution (~1.8×10^5 CFU/mL) with the working concentration of 25 μM. This was incubated at 37°C. At different time intervals (0, 1, 2, 3, 6 and 24 h) 20 μL of aliquots from that solution were serially diluted 10 -fold in 0.9 % saline. Then from the dilutions, 20 μL was plated on yeast -dextrose agar plates and incubated at 37°C for 24 h. The bacterial colonies were counted and results are represented in logarithmic scale, i.e. log10 (CFU/mL). […]

| Compound | concentration showing growth retardation (inhibitory effect from) (B. subtilis 168) | cell wall biosynthesis inhibition (bubbles after acetic acid/methanol fixation) (B. subtilis) | time to complete eradication ([1]; 10 μM) | time to complete eradication ([1]; 20 μM) | time to complete eradication ([2]; 8×MIC) | minimum bactericidal concentration (MBC) [2] | effect on viable stationary phase cells ([1]; 40 μM, 24 h) | time to complete eradication ([2]; 2×MIC) |
| --- | --- | --- | --- | --- | --- | --- | --- | --- |
| CCCCCCCCCCNC(=O)C[N+](C)(C)CCCNC(=O)C1NC(=O)C2NC(=O)C(NC(=O)C3NC(=O)C(CC(N)=O)NC(=O)C(NC(=O)C(CC(C)C)NC)C(O)c4ccc(c(Cl)c4)Oc4cc3cc(c4OC3OC(CO)C(O)C(O)C3OC3CC(C)(N)C(O)C(C)O3)Oc3ccc(cc3Cl)C2O)c2ccc(O)c(c2)-c2c(O)cc(O)cc21 (stereo not drawn) [VanQAmC10 (8)] | 0.125 µM | showed bubbles on the surface | 24 h | up to 6 h | ≤ 6 h | 2 ×MIC |  |  |
| CNC(CC(C)C)C(=O)NC1C(=O)NC(CC(N)=O)C(=O)NC2C(=O)NC3C(=O)NC(C(=O)NC(C(=O)NCCC[N+](C)(C)Cc4ccc(-c5ccccc5)cc4)c4cc(O)cc(O)c4-c4cc3ccc4O)C(O)c3ccc(c(Cl)c3)Oc3cc2cc(c3OC2OC(CO)C(O)C(O)C2OC2CC(C)(N)C(O)C(C)O2)Oc2ccc(cc2Cl)C1O (stereo not drawn) [VanQbiph (4)] | 0.2 µM | showed bubbles on the surface |  | 24 h | 24 h | 2 ×MIC |  |  |
| CN[C@H](CC(C)C)C(=O)N[C@H]1C(=O)N[C@@H](CC(N)=O)C(=O)N[C@H]2C(=O)N[C@H]3C(=O)N[C@H](C(=O)N[C@H](C(=O)O)c4cc(O)cc(O)c4-c4cc3ccc4O)[C@H](O)c3ccc(c(Cl)c3)Oc3cc2cc(c3O[C@@H]2O[C@H](CO)[C@@H](O)[C@H](O)[C@H]2O[C@H]2C[C@](C)(N)[C@H](O)[C@H](C)O2)Oc2ccc(cc2Cl)[C@H]1O [Vancomycin, reference compound] | 0.4 µM | showed bubbles on the surface |  |  |  |  | did not reduce the number of viable stationary phase cells | 24 h |
